US20260217767A1, “NOVEL A4B7 THIOETHER PEPTIDE DIMER ANTAGONISTS” (Protagonist Therapeutics, Inc., priority 2014, published 2026)
Like-named read-outs stand apart in the source and are kept apart here. *1 amine or outer side, *2 acyl side, *3 side chain or, on linkers, in order; H or OH if unused. Where a SMILES comes first, the peptide text is derived from it. Bridges are numbered along the chain shown (N, C = ends). Roman numbers before positions name the chains, in order. [ ]: non-standard residue; d: D form. Phe(4-CF3) = N[C@@H](Cc1ccc(C(F)(F)F)cc1)C(=O)O; Bip = N[C@@H](Cc1ccc(-c2ccccc2)cc1)C(=O)O; 1Nal = N[C@@H](Cc1cccc2ccccc12)C(=O)O; Diglycolyl = O=C(COCC(=O)[*:2])[*:1]; NMeR = CN[C@@H](CCCNC(=N)N)C(=O)O; X1 = O=C(c1ccccc1C[*:2])[*:1]; Pen = CC(C)(S)[C@H](N)C(=O)O

How the values were obtained:
[1] = target: T1, rh integrin α4β7 (Homo sapiens, UniProt P13612+P26010); assay: α4β7-MAdCAM Competition ELISA; assay type: binding; settings: read-out: ELISA A4B7
T1 construct: purchased R&D Systems 5397-A30
T1 sequence (P13612 34-977 limits assumed): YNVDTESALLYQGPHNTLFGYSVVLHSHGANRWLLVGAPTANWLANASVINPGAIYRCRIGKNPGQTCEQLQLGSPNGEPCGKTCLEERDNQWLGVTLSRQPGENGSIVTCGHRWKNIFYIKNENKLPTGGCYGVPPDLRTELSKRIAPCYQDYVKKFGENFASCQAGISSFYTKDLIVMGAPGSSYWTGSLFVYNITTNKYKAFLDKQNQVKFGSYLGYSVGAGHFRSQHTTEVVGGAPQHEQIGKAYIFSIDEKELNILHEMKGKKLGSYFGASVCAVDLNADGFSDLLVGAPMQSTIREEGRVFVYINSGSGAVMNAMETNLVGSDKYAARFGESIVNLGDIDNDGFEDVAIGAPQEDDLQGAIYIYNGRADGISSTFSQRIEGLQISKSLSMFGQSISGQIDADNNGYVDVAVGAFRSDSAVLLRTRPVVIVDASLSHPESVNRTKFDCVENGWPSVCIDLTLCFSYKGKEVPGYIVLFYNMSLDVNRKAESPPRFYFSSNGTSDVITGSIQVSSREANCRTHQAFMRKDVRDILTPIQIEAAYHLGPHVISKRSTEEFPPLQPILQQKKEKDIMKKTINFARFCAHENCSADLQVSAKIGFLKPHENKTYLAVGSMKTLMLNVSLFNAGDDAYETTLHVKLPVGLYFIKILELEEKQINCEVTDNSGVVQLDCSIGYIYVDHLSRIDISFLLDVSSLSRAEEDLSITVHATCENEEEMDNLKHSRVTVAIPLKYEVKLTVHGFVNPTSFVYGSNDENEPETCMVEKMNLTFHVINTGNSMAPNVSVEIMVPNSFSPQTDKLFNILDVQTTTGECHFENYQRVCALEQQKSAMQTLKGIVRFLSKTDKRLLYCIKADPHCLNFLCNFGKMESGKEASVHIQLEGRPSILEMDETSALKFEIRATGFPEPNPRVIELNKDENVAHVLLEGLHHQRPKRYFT
T1 sequence (P26010 20-723 limits assumed): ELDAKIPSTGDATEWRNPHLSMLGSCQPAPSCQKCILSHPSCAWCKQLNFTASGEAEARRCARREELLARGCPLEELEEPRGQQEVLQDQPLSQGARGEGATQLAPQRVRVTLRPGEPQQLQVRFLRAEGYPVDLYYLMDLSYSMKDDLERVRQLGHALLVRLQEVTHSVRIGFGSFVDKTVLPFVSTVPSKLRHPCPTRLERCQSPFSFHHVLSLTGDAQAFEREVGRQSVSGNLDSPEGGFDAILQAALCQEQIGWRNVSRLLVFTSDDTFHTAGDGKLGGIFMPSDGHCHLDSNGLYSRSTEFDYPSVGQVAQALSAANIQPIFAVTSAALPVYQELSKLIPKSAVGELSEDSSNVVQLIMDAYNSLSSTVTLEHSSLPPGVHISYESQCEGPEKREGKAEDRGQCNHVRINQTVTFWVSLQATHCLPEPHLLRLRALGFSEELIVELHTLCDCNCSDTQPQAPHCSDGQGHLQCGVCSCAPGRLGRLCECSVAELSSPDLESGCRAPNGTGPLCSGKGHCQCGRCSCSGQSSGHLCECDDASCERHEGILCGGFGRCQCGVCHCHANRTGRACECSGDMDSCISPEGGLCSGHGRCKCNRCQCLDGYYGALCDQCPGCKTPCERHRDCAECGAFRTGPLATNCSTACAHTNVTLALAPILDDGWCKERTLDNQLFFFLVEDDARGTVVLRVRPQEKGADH
In short: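 Recombinant human α4β7 captured on nickel-coated plates, then incubated 1 h at room temperature with serially diluted peptides (final top 10 μM) and 10 nM final MAdCAM-1 in Tris pH 7.6 buffer with 1 mM MnCl2 or MgCl2. Bound MAdCAM-1 detected with anti-human IgG1-HRP and TMB, absorbance at 450 nm.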

[2] = Simulated Intestinal Fluid (SIF) Stability Assay; assay type: in vitro ADME; settings: 37° C.; for half-life at 22 μM: simulated intestinal fluid (SIF) with 1% porcine pancreatin, pH 6.5, porcine pancreatin; for half-life: porcine pancreatin
In short: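 Percent peptide remaining over time was measured by LC-MS/MS as the peak-area ratio to internal standard, and a first-order decay fit gave half-life. Digests contained 22 μM peptide and 1% pancreatin in pH 6.5 FaSSIF buffer at 37° C. Aliquots were quenched in organic solvent with formic acid.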

[3] = thioether monomer peptides, Table 6
[4] = thioether peptide dimers, Table 7

Compound	IC50 [1, 3]	half-life at 22 μM ([2]; pig, monomers, Table 6)	IC50 [1, 4]	further results
CC(C)C[C@@H]1NC(=O)[C@H]([C@@H](C)O)NC(=O)[C@H](CC(=O)O)NC(=O)[C@H](CO)NC(=O)[C@H](CCCNC(=N)N)N(C)C(=O)c2ccccc2CSC(C)(C)[C@@H](C(=O)N[C@@H](Cc2ccc3ccccc3c2)C(=O)N[C@H](CCC(=O)O)C(N)=O)NC1=O [compound 114] (HELM PEPTIDE1{[meR].S.D.T.L.[Pen].[O=C([C@H](Cc1ccc2ccccc2c1)N[*:1])[*:2]].[dE].[am]}|CHEM1{[O=C(c1ccccc1C[*:2])[*:1]]}$PEPTIDE1,CHEM1,1:R1-1:R1|PEPTIDE1,CHEM1,6:R3-1:R2$$$V2.0)	< 25 nM	> 3 h	–	–
CC(C)C[C@@H]1NC(=O)[C@H]([C@@H](C)O)NC(=O)[C@H](CC(=O)O)NC(=O)[C@H](CO)NC(=O)[C@H](CCCNC(=N)N)N(C)C(=O)c2ccccc2CSC(C)(C)[C@@H](C(=O)N[C@@H](Cc2cccc3ccccc23)C(=O)N[C@H](CCC(=O)O)C(=O)N[C@H](CCCCNC(=O)COCC(=O)NCCCC[C@@H](NC(=O)[C@@H](CCC(=O)O)NC(=O)[C@H](Cc2cccc3ccccc23)NC(=O)[C@H]2NC(=O)[C@H](CC(C)C)NC(=O)[C@H]([C@@H](C)O)NC(=O)[C@H](CC(=O)O)NC(=O)[C@H](CO)NC(=O)[C@H](CCCNC(=N)N)N(C)C(=O)c3ccccc3CSC2(C)C)C(N)=O)C(N)=O)NC1=O [compound 158] (I: [NMeR]SDTL[Pen][1Nal][dE][dK]-NH2 / II: [NMeR]SDTL[Pen][1Nal][dE][dK]-NH2; linker I:9-II:9 via Diglycolyl; linker I:N-I:6, II:N-II:6 via X1)	–	–	< 25 nM	half-life at 22 μM ([2]; pig, dimers, Table 7): > 3 h
CC(C)C[C@@H]1NC(=O)[C@H]([C@@H](C)O)NC(=O)[C@H](CC(=O)O)NC(=O)[C@H](CO)NC(=O)[C@H](CCCNC(=N)N)N(C)C(=O)c2ccccc2CSC(C)(C)[C@@H](C(=O)N[C@@H](Cc2cccc3ccccc23)C(=O)N[C@H](CCC(=O)O)C(=O)N(C)[C@@H](CCCCN)C(N)=O)NC1=O [compound 69] (HELM PEPTIDE1{[meR].S.D.T.L.[Pen].[O=C([C@H](Cc1cccc2ccccc12)N[*:1])[*:2]].[dE].[meK].[am]}|CHEM1{[O=C(c1ccccc1C[*:2])[*:1]]}$PEPTIDE1,CHEM1,1:R1-1:R1|PEPTIDE1,CHEM1,6:R3-1:R2$$$V2.0)	< 25 nM	> 3 h	–	–
CC(C)C[C@@H]1NC(=O)[C@H]([C@@H](C)O)NC(=O)[C@H](CC(=O)O)NC(=O)[C@H](CO)NC(=O)[C@H](CCCNC(=N)N)N(C)C(=O)c2ccccc2CSC(C)(C)[C@@H](C(=O)N[C@@H](Cc2ccc(-c3ccccc3)cc2)C(=O)N[C@H](CCC(=O)O)C(=O)N[C@H](CCCCNC(=O)COCC(=O)NCCCC[C@@H](NC(=O)[C@@H](CCC(=O)O)NC(=O)[C@H](Cc2ccc(-c3ccccc3)cc2)NC(=O)[C@H]2NC(=O)[C@H](CC(C)C)NC(=O)[C@H]([C@@H](C)O)NC(=O)[C@H](CC(=O)O)NC(=O)[C@H](CO)NC(=O)[C@H](CCCNC(=N)N)N(C)C(=O)c3ccccc3CSC2(C)C)C(=O)O)C(=O)O)NC1=O [compound 208] (I: [NMeR]SDTL[Pen][Bip][dE][dK]-OH / II: [NMeR]SDTL[Pen][Bip][dE][dK]-OH; linker I:9-II:9 via Diglycolyl; linker I:N-I:6, II:N-II:6 via X1)	–	–	< 25 nM	half-life ([2]; pig, dimers, Table 7): > 3 h
CC(C)C[C@@H]1NC(=O)[C@H]([C@@H](C)O)NC(=O)[C@H](CC(=O)O)NC(=O)[C@H](CO)NC(=O)[C@H](CCCNC(=N)N)N(C)C(=O)c2ccccc2CSC(C)(C)[C@@H](C(=O)N[C@@H](Cc2cccc3ccccc23)C(=O)N[C@@H](CCC(=O)O)C(=O)N[C@H](CCCCNC(=O)COCC(=O)NCCCC[C@@H](NC(=O)[C@H](CCC(=O)O)NC(=O)[C@H](Cc2cccc3ccccc23)NC(=O)[C@H]2NC(=O)[C@H](CC(C)C)NC(=O)[C@H]([C@@H](C)O)NC(=O)[C@H](CC(=O)O)NC(=O)[C@H](CO)NC(=O)[C@H](CCCNC(=N)N)N(C)C(=O)c3ccccc3CSC2(C)C)C(N)=O)C(N)=O)NC1=O [compound 167] (I: [NMeR]SDTL[Pen][1Nal]E[dK]-NH2 / II: [NMeR]SDTL[Pen][1Nal]E[dK]-NH2; linker I:9-II:9 via Diglycolyl; linker I:N-I:6, II:N-II:6 via X1)	–	–	< 25 nM	half-life ([2]; simulated gi fluid, dimers, Table 7): < 0.333 h
CC(C)C[C@@H]1NC(=O)[C@H]([C@@H](C)O)NC(=O)[C@H](CC(=O)O)NC(=O)[C@H](CO)NC(=O)[C@H](CCCNC(=N)N)N(C)C(=O)c2ccccc2CSC(C)(C)[C@@H](C(=O)N[C@@H](Cc2c[nH]c3ccccc23)C(=O)N[C@H](CCC(=O)O)C(=O)N[C@@H](CN)C(N)=O)NC1=O [compound 94] (HELM PEPTIDE1{[meR].S.D.T.L.[Pen].W.[dE].[NC[C@H](N[*:1])C(=O)[*:2]].[am]}|CHEM1{[O=C(c1ccccc1C[*:2])[*:1]]}$PEPTIDE1,CHEM1,1:R1-1:R1|PEPTIDE1,CHEM1,6:R3-1:R2$$$V2.0)	< 25 nM	–	–	half-life ([2]; pig, monomers, Table 6): > 3 h
CC(C)C[C@@H]1NC(=O)[C@H]([C@@H](C)O)NC(=O)[C@H](CC(=O)O)NC(=O)[C@H](CO)NC(=O)[C@H](CCCNC(=N)N)N(C)C(=O)c2ccccc2CSC[C@@H](C(=O)N[C@@H](Cc2c[nH]c3ccccc23)C(=O)N[C@@H](CCC(=O)O)C(=O)N[C@H](CCCCN)C(N)=O)NC1=O [compound 55] (HELM PEPTIDE1{[meR].S.D.T.L.C.W.E.[dK].[am]}|CHEM1{[O=C(c1ccccc1C[*:2])[*:1]]}$PEPTIDE1,CHEM1,1:R1-1:R1|PEPTIDE1,CHEM1,6:R3-1:R2$$$V2.0)	< 25 nM	0.417 h	–	–
CC(C)C[C@@H]1NC(=O)[C@H]([C@@H](C)O)NC(=O)[C@H](CC(=O)O)NC(=O)[C@H](CO)NC(=O)[C@H](CCCNC(=N)N)N(C)C(=O)c2ccccc2CSC(C)(C)[C@@H](C(=O)N[C@@H](Cc2ccc(C(F)(F)F)cc2)C(=O)N[C@@H](CCC(=O)O)C(=O)N[C@H](CCCCNC(=O)COCC(=O)NCCCC[C@@H](NC(=O)[C@H](CCC(=O)O)NC(=O)[C@H](Cc2ccc(C(F)(F)F)cc2)NC(=O)[C@H]2NC(=O)[C@H](CC(C)C)NC(=O)[C@H]([C@@H](C)O)NC(=O)[C@H](CC(=O)O)NC(=O)[C@H](CO)NC(=O)[C@H](CCCNC(=N)N)N(C)C(=O)c3ccccc3CSC2(C)C)C(N)=O)C(N)=O)NC1=O [compound 166] (I: [NMeR]SDTL[Pen][Phe(4-CF3)]E[dK]-NH2 / II: [NMeR]SDTL[Pen][Phe(4-CF3)]E[dK]-NH2; linker I:9-II:9 via Diglycolyl; linker I:N-I:6, II:N-II:6 via X1)	–	–	< 25 nM	half-life ([2]; pig, dimers, Table 7): 0.5 h
